This is an account of results in patent US8193172B2, “Methods for the treatment of major depressive disorder using glucocorticoid receptor antagonists” (Pop Test Cortisol LLC, priority 2001, dated 2012).

In experiment [1] the test system is Major Depressive Disorder patients. As to the kind of experiment: Double blind, 4 week, paroxetine controlled study of Org 34517 in depressed patients (HAMD-21, afternoon cortisol test). The class given is in vivo. Particulars: daily dose 150-300 mg, oral, FIG. 1. The procedure:
A double blind, 4 week, paroxetine controlled study of Org 34517 in depressed patients was carried out. Paroxetine is a selective serotonin re-uptake inhibitor which is recognized as an effective antidepressant for major depression.
Patients were randomly allocated to one of three treatment groups. Group I patients (50 patients) received 2 capsules with 75 mg of Org 34517 and one placebo (total daily dose 150 mg) for the first 2 weeks and 2 capsules with 75 mg Org 34517 and 1 capsule with 150 mg (total daily dose 300 mg) the next 2 weeks; Group II patients (46 patients) received 3 capsules with 150 mg Org 34517 (total daily dose 450 mg) in the first 2 weeks and 4 capsules of Org 34517 (total daily dose 600 mg) in the next 2 weeks; Group III patients (44 patients) received 2 capsules with 10 mg paroxetine and one placebo capsule (total daily dose 20 mg) for the first 2 weeks, followed by 2 capsules of 10 mg and one capsule of 20 mg paroxetine (total daily dose 40 mg) in the next 2 weeks. Medication was administered orally in the morning. Efficacy assessment was done on days 4, 7, 10, 14, 21, 28 and 35 by using the 21-item HAMD scale.
The cortisol levels were determined using the afternoon cortisol test (ACT) as described by Halbreich et al. [J. Clin. Endocrinol. Metab. (1982) 54 (6), 1262].

The test system of experiment [2] is psychosis associated with psychotic major depression. Particulars: mifepristone 8-12 mg/kg/day over 4 days; cited from earlier work.
For experiment [3] the test system is unchanged. As to conditions: cited from earlier work.

Molecules are shown by their SMILES. Like-named read-outs stand apart in the source and are kept apart here.

`CC#C[C@]1(O)CC[C@H]2[C@@H]3CCC4=CC(=O)CCC4=C3[C@@H](c3ccc4c(c3)OCO4)C[C@@]21C` [Org 34517, (11β,17β)-11-(1,3-benzodioxol-5-yl)-17-hydroxy-17-(1-propynyl)estra-4,9-dien-3-one]: in experiment [1] (HAMD-21 change scored at day 14, cortisol change at 28 days), the “p of correlation between HAMD-21 change and cortisol (ACT) change” value is 0.02. For the same molecule, the “clinical improvement (HAMD decrease) in relation to cortisol change” value in experiment [1] is listed as “most prominent clinical improvement (HAMD decrease) is seen in patients were cortisol is not increased”.
For `CC#C[C@]1(O)CC[C@H]2[C@@H]3CCC4=CC(=O)CCC4=C3[C@@H](c3ccc(N(C)C)cc3)C[C@@]21C` [mifepristone, 17β-hydroxy-11β-(4-dimethylaminophenyl)-17α-(1-propynyl)estra-4,9-dien-3-one], in experiment [2], the “effect in the treatment of psychosis associated with psychotic major depression” value was “effective”. The “change in Brief Psychiatric Rating Scale” value is 33% in experiment [3] (daily dose 50 mg), 40% in experiment [3] (daily dose 600 mg) and 52% in experiment [3] (daily dose 1200 mg).
